# Measured values published in ChEMBL document CHEMBL1201862, “PubChem BioAssay data set” (2004).
# Activity calls are given as the source filed them.
# Assays:
# [1] = cytotoxicity toward NIH3T3 fibroblasts, dose response, counter-screen, cell-based, ATP luminescence, mouse fibroblasts (AID 2010); assay type: functional;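 further: cells exposed to compound for about 90 hours before reading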
# Fibrinogen beta chain [2] = molecular target: T1, Fibrinogen beta chain (Homo sapiens, UniProt P02675); experiment: Fluorescence polarization-based biochemical high throughput dose response assay to identify inhibitors that disrupt the binding of a cyclic peptide (Tn6) to the fibrin proteolytic product D-Dimer and fragment E complex [DD(E )].
# T1 sequence (P02675 whole entry): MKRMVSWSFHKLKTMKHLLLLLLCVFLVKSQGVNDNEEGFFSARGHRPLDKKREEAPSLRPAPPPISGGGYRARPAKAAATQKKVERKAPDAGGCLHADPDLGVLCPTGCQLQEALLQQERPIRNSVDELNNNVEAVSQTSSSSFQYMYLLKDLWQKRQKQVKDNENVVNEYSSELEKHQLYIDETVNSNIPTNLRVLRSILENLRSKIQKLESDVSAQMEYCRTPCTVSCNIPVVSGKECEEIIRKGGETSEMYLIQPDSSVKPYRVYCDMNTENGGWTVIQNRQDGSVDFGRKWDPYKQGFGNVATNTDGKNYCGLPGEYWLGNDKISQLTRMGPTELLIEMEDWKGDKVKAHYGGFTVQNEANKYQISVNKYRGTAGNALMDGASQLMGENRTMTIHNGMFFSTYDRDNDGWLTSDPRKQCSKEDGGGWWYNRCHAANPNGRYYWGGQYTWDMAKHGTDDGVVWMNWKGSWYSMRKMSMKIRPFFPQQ
# [3] = inhibitors of intracellular T. cruzi replication, confirmation, NIH3T3 host cells, beta-gal luminescence (AID 2044); assay type: functional, cell-based;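 further: intracellular parasites grown in NIH/3T3 mouse fibroblasts as host cells; luminescent beta-galactosidase reporter signal from transgenic T. cruzi replicating inside host cells; inhibitors lower the luminescence signal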
# Fibrinogen beta chain [4] = molecular target: T1, Fibrinogen beta chain; experiment: Fluorescence polarization-based biochemical high throughput dose response assay to identify inhibitors that disrupt the binding of a cyclic peptide (Tn7) to the fibrin proteolytic product D-Dimer and fragment E complex [DD(E )].
# [5] = P. falciparum Dd2 growth inhibitors, dose response, SYBR Green, dry powder samples, set 9 (AID 1159568); assay type: functional, cell-based
# Paired box protein Pax-8 = Paired box protein Pax-8 (Homo sapiens, UniProt Q06710); experiment: inhibitors of PAX8-driven TPO luciferase reporter, dose response, RMG-I cells, cherry-pick (AID 687027); assay type: functional, cell-based;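 further: luciferase reporter driven by Pax8 target thyroperoxidase promoter measured by SteadyGlo luminescence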
# [6] = A2780 ovarian cancer cell cytotoxicity, dose response, cytotoxicity control, plate reader, dry powder samples (AID 743046); assay type: functional, cell-based
# [7] = non-specific cell cytotoxicity, dose response, cytotoxicity control for PAX8 inhibitor project, plate reader, dry powder samples (AID 743021); assay type: functional, cell-based
# [8] = NIH:OVCAR-3 ovarian cancer cell cytotoxicity, dose response, PAX8 inhibitor project, plate reader, dry powder samples (AID 743044); assay type: functional, cell-based
# [9] = cytotoxicity in OVCAR8 ovarian cancer cells, dose response, PAX8 project, cell-based, plate reader, dry powder samples (AID 743197); assay type: functional; conditions: OVCAR-8
# [10] = ADAM10 inhibitors, peptide cleavage, dose response, biochemical, QFRET (AID 743254);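 further: ADAM10 enzyme with the DM2 quenched FRET peptide as substrate; EDANS fluorescence gain as the protease cuts the substrate; inhibitor potency against ADAM10 proteolytic activity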
# [11] = molecular target: Disintegrin and metalloproteinase domain-containing protein 17 (Homo sapiens, UniProt P78536); experiment: ADAM17 protease inhibitors, dose response, counter-screen for ADAM10 exosite inhibitor project, biochemical, quenched FRET substrate (AID 743253)
# [12] = growth suppression of PTEN-null colon cells, dose response, cell-based, HCT116 PTEN knockout (AID 1047); assay type: functional;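 further: HCT116 colon tumor cells with PTEN knocked out; cells exposed to compound for 60 hours before readout; potency for loss of cell viability measured by luminescence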
# [13] = growth suppression of beta-catenin-knockout colon cells, dose response, cell-based, HCT116, human colon tumor (AID 1045); assay type: functional;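 further: HCT116 colon tumor cells with beta catenin knocked out; cells exposed to compound for 60 hours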
# [14] = THP-1 cell cytotoxicity, dose response, cytotoxicity control for Vif-APOBEC3G degradation inhibitor project, THP-1 cells (AID 1117359); assay type: functional; conditions: Human immunodeficiency virus 1, THP-1
# [15] = inhibitors of Vif binding to APOBEC3G peptide, primary screen, biochemical, TR-FRET, GST-Vif 1-94, biotin-A3G peptide, dose response retest (AID 1117319); assay type: functional;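 further: TR-FRET signal of purified GST-Vif binding a biotinylated A3G peptide; inhibitors lower the FRET signal by blocking Vif and A3G binding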
# [16] = A375 melanoma cell viability loss, dose response, counter-screen for MITF inhibitor project, CellTiter-Glo luminescence, dry powder, set 4 (AID 624364); assay type: functional, cell-based; conditions: A-375;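 further: A375 melanoma cells are MITF independent so this is a counter screen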
# [17] = A375 melanoma cell cytotoxicity, dose response, counter-screen for MITF inhibitor project, CellTiter-Glo luminescence, dry powder, set 2 (AID 624489); assay type: functional, cell-based; conditions: A-375;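 further: actives are compounds lowering A375 viability meaning general cytotoxicity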
# Protein skinhead-1 = molecular target: T2, Protein skinhead-1 (Caenorhabditis elegans, UniProt P34707); assay type: functional
# T2 sequence (P34707 whole entry): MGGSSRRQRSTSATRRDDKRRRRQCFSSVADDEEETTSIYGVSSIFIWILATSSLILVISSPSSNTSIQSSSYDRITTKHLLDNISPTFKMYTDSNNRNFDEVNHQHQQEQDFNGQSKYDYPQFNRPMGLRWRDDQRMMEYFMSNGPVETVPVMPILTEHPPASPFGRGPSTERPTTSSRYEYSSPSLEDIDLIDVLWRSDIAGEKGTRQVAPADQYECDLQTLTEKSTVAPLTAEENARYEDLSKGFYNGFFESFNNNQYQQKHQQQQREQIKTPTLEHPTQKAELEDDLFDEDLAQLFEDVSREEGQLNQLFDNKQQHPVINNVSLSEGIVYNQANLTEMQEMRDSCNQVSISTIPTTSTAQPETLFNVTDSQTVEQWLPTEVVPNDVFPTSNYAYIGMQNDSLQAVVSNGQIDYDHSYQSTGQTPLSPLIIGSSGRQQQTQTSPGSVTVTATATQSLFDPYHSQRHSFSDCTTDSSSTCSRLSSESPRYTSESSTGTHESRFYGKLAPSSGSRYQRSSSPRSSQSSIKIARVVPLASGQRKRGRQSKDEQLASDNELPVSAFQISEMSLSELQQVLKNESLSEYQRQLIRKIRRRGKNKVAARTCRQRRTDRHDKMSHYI
# [18] = molecular target: T3, Long-chain-fatty-acid--AMP ligase FadD28 (Mycobacterium tuberculosis, UniProt P9WQ59); experiment: Fluorescence polarization aasay to screen for inhibitors that compete for the binding of FadD28 to a bisubstrate Measured in Biochemical System Using Plate Reader - 2147-01_Inhibitor_Dose_CherryPick_Activity.; assay type: functional, Mycobacterium tuberculosis H37Rv
# T3 sequence (P9WQ59 whole entry): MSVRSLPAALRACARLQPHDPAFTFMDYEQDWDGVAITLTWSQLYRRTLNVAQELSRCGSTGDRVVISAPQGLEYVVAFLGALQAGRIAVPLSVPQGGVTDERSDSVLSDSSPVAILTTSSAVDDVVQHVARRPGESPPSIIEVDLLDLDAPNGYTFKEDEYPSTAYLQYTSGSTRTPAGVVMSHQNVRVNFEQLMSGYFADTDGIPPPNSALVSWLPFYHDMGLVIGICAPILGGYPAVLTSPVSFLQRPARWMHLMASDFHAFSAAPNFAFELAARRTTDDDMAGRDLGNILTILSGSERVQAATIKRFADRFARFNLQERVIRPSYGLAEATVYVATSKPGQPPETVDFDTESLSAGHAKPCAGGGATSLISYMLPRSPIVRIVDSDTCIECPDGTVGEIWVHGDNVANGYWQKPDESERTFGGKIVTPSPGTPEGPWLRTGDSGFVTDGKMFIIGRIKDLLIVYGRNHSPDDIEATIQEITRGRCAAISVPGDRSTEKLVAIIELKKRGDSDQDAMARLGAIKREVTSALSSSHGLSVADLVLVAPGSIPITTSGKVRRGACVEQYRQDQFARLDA
# [19] = molecular target: T4, Microphthalmia-associated transcription factor (Homo sapiens, UniProt O75030); experiment: TRPM1 promoter luciferase signal decrease, dose response, MITF inhibitor project, cell-based, SK-MEL-5, cherry-picked, set 3 (AID 493073); assay type: functional
# T4 sequence (O75030 whole entry): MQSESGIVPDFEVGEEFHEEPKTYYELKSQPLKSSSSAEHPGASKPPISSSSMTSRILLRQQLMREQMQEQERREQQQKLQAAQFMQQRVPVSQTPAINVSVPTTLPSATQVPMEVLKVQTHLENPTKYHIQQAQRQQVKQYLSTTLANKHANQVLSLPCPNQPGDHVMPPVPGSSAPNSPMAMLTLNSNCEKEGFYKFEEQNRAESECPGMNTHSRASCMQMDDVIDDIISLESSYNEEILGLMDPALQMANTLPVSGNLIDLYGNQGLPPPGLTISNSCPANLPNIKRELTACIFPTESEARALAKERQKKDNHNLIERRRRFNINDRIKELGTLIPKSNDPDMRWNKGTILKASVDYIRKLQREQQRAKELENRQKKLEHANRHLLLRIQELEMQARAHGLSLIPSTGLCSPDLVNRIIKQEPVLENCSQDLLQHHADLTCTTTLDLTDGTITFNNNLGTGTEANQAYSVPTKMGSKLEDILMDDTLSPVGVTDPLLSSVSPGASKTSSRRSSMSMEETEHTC
# [20] = Vero E6 cell cytotoxicity, dose response, cytotoxicity control for non-replicating M. tuberculosis project, secondary assay (AID 492998); assay type: functional, VeroE6; conditions: Vero C1008
# [21] = THP-1 cell cytotoxicity, dose response, cytotoxicity control for non-replicating M. tuberculosis project (AID 489025); assay type: functional
# Sequence of Disintegrin and metalloproteinase domain-containing protein 17 (P78536 whole entry, the tested form may be a part): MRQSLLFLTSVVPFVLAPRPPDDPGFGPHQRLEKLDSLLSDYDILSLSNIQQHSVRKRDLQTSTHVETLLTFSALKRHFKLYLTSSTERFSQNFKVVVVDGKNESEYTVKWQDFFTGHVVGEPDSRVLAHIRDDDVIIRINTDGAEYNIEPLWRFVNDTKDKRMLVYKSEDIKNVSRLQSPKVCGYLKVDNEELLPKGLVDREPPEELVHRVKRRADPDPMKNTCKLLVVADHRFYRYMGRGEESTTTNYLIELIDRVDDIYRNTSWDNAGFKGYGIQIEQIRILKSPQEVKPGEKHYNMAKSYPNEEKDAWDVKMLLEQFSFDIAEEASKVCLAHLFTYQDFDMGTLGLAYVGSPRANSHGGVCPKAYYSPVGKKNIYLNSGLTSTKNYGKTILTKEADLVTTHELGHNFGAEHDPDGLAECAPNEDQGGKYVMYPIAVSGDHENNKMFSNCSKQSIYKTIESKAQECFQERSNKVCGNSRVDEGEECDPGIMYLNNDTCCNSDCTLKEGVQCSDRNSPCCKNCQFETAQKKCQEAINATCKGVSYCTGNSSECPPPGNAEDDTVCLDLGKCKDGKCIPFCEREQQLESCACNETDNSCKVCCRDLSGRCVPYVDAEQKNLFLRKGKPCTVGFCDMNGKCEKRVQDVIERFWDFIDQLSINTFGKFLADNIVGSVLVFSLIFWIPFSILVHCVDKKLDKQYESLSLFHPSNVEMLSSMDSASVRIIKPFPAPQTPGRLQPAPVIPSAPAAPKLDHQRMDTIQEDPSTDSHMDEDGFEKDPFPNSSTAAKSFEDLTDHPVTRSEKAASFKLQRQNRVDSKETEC
# Sequence of Paired box protein Pax-8 (Q06710 whole entry): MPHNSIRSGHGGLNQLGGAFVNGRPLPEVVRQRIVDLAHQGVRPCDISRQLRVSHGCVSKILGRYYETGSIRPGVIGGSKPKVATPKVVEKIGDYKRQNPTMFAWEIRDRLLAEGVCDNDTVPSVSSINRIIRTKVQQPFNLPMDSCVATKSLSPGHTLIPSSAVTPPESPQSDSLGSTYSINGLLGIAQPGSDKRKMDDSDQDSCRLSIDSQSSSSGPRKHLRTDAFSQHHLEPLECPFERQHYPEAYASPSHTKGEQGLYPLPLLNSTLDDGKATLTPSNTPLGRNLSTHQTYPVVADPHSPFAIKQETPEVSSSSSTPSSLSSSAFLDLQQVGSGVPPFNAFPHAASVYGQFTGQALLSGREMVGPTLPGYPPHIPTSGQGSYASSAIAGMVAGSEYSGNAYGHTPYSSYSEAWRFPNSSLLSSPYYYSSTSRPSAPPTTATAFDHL
smiles,measurement,setting,value
CN(c1ccccc1)S(=O)(=O)c1ccc(Cl)c(C(=O)Nc2ccc(-c3nc4ccccc4[nH]3)cc2)c1,EC50,[1],> 30 µM (not active)
same,IC50,Fibrinogen beta chain [2],> 83.3 µM (inactive)
same,EC50,[3],1.68 µM (active)
same,IC50,Fibrinogen beta chain [4],> 83.3 µM (inactive)
CN(C)C(=O)c1ccc(-c2ccc([C@@H]3[C@H]4CN(C(=O)CC5CC5)CC(=O)N4[C@H]3CO)cc2)cc1,AC50,[5],14.4 µM (active)
C[C@H]1CCCCO[C@H](CN(C)S(=O)(=O)c2ccccc2)[C@@H](C)CN([C@@H](C)CO)C(=O)c2cc(NS(=O)(=O)c3ccc(Cl)cc3)ccc2O1,AC50,Paired box protein Pax-8,7.4 µM (active)
same,AC50,[6],19.1 µM (active)
same,AC50,[7],43.2 µM (active)
same,AC50,[8],58.4 µM (active)
same,AC50,[9],> 70 µM (inactive)
O=S(=O)(N/N=C/c1cn(Cc2ccccc2)c2ccccc12)c1ccccc1,IC50,[10],25.1 µM (inactive)
same,IC50,[11],> 69.5 µM (inactive)
same,EC50,[12],3.27 µM (active)
same,EC50,[13],35.6 µM (active)
CC(C)Cc1ccc(C(C)C(=N)N)cc1 (stereo unspecified),CC50,[14],> 40 µM (active)
same,IC50,[15],> 100 µM (active)
CCN1CCN(C2=C(NS(=O)(=O)c3cccs3)C(=O)c3ccccc3C2=O)CC1,AC50,[16],> 70 µM (inactive)
same,AC50,[17],56.1 µM (active)
CC1C(=O)N2CCCc3cc(NC(=O)C(=O)NCc4cccnc4)cc1c32 (stereo unspecified),CC50,[14],> 40 µM (active)
Cc1ccccc1-c1ccc2c(c1)O[C@H](CN(C)C(=O)Nc1ccc(C(F)(F)F)cc1)[C@@H](C)CN([C@@H](C)CO)S2(=O)=O,AC50,[5],5.32 µM (active)
CC1(Cc2ccc(C(F)(F)F)o2)C(=O)Nc2cc(-c3ccc(F)cc3F)ccc21 (stereo unspecified),IC50,[10],15.6 µM (inactive)
same,IC50,[11],> 69.5 µM (inactive)
CCn1c(CSc2n[nH]c(N)n2)nc2cc(C(=O)O)ccc21,IC50,Protein skinhead-1,> 100 µM (inactive)
same,IC50,Fibrinogen beta chain [2],8.92 µM (active)
same,AC50,[18],79 µM (active)
same,IC50,Fibrinogen beta chain [4],> 83.3 µM (inactive)
COc1ccc(S(=O)(=O)N(C(C)=O)c2ccc(OC(C)=O)c3ccccc23)cc1[N+](=O)[O-],AC50,[19],11.6 µM (active)
same,CC50,[20],> 20 µM (active)
same,CC50,[21],10.7 µM (active)
same,AC50,[16],55.5 µM (active)
same,AC50,[17],29.1 µM (active)
